Test results reported in BindingDB's records for doi:10.1038/nchembio.307 (Harvard Medical School, 2010).

Molecular target: T1, Amine oxidase [flavin-containing] B (Homo sapiens, UniProt P27338)
T1 sequence (P27338 whole entry): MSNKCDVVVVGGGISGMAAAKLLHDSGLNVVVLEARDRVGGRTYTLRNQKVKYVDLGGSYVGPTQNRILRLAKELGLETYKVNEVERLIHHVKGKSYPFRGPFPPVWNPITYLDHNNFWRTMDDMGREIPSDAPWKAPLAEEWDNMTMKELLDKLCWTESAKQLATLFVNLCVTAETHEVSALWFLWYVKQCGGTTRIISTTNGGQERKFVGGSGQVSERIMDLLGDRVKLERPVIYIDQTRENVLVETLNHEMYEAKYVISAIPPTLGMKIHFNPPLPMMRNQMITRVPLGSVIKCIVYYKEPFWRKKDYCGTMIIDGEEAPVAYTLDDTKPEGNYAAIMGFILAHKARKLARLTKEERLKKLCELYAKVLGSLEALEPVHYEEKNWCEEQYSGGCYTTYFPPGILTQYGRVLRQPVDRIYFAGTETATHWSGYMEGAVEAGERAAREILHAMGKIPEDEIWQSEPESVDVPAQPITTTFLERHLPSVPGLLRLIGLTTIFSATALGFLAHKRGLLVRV
Experiment: MAO-B Enzymatic Assay
Excerpt: Momoamine oxidase type B(MAO-B) activity in vitro assay using molecules that caused a photomotor response (PMR) "magnitude stimulant' (MAG) phenotype characterized by increased PMR excitation magnitude.

Compound	IC50
CC(C)(C)OC(=O)NCCC(=O)Oc1ccc(C(=O)Oc2ccc3c4c(c(=O)oc3c2)CCCC4)cc1Cl [MAG-5]	10 µM
O=C(CNC(=O)OCc1ccccc1)Oc1ccc(C(=O)Oc2ccc3c4c(c(=O)oc3c2)CCC4)cc1Cl [MAG-6]	10 µM
CC(C)(C)OC(=O)NCCC(=O)Oc1ccc(C(=O)Oc2ccc3c4c(c(=O)oc3c2)CCC4)cc1Cl [MAG-3]	1 µM
CC(C)(C)OC(=O)NCC(=O)Oc1ccc(C(=O)Oc2ccc3c4c(c(=O)oc3c2)CCC4)cc1Cl [MAG-7]	0.5 µM
